# Experimental data taken from ChEMBL document CHEMBL5346882 (Eur J Med Chem, 2023).
# How the values were obtained:
# Cholinesterase [1] = target: Cholinesterase (Equus caballus, UniProt P81908)
# Description: Inhibition of horse serum BuChE using butyrylthiocholine iodide as substrate preincubated for 5 mins followed by substrate addition and measured after 5 mins by DTNB-reagent based Ellman's method
# Cholinesterase [2] = target: T1, Cholinesterase (Homo sapiens, UniProt P06276); test: Inhibition of human recombinant BuChE using butyrylthiocholine iodide as substrate at 1 uM preincubated for 5 mins followed by substrate addition and measured after 5 mins by DTNB-reagent based Ellman's method relative to control; settings: time 10.0 min
# T1 sequence (P06276 whole entry): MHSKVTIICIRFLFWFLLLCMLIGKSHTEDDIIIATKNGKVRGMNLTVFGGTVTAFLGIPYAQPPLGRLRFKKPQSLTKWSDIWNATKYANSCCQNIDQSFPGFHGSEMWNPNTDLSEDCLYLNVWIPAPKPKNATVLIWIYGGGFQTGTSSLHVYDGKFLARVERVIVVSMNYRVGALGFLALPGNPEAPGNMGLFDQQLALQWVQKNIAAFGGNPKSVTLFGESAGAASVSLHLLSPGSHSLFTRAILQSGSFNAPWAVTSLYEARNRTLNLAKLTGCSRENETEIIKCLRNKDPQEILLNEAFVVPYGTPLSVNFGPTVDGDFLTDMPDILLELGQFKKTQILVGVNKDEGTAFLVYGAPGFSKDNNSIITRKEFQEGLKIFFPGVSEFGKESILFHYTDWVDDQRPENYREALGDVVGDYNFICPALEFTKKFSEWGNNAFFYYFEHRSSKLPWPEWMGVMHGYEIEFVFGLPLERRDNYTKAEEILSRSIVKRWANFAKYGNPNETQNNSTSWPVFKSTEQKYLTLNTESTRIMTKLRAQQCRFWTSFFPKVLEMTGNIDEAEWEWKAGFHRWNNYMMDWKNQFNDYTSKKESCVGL
# in vitro = settings: human, HepG2 cells
# Description: Hepatotoxicity in human HepG2 cells assessed as reduction in cell viability incubated for 72 hrs by MTS assay
# Cytochrome P450 2D6 = Cytochrome P450 2D6 (Homo sapiens, UniProt P10635); test: Inhibition of CYP2D6 (unknown origin) at 10 uM; assay type: ADME
# Cytochrome P450 2D6, sequence (P10635 whole entry): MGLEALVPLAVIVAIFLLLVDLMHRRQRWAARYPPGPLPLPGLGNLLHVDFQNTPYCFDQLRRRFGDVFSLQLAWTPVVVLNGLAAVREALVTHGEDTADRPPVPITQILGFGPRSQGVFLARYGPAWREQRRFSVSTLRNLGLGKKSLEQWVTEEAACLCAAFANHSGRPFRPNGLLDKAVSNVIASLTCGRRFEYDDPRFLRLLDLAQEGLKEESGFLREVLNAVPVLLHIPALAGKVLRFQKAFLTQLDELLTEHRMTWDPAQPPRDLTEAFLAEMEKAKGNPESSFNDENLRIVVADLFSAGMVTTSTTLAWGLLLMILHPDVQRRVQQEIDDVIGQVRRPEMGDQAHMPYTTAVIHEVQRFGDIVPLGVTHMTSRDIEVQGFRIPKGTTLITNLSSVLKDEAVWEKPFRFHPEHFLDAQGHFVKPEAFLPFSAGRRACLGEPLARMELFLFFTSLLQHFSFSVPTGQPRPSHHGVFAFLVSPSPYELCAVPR
# Cytochrome P450 3A4 = Cytochrome P450 3A4 (Homo sapiens, UniProt P08684); test: Inhibition of CYP3A4 (unknown origin) at 10 uM; assay type: ADME
# Cytochrome P450 3A4, sequence (P08684 whole entry): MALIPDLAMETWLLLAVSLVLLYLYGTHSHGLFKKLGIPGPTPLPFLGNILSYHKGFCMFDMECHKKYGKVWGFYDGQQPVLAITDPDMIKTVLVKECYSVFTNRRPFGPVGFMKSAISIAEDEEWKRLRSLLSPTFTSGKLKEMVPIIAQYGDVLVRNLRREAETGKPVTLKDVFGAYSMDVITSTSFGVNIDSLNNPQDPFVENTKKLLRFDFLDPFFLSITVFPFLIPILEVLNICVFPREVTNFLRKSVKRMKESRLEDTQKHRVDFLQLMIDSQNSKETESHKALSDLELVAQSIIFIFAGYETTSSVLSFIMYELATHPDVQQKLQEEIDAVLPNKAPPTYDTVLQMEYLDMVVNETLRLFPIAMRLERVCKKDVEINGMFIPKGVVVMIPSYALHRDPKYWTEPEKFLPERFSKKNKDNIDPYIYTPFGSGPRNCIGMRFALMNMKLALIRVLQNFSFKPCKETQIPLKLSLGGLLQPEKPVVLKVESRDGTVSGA
# [3] = target: Sodium- and chloride-dependent GABA transporter 1 (Mus musculus, UniProt P31648); test: Inhibition of mouse GAT1 expressed in HEK293 cells assessed as reduction in [3H]-GABA uptake incubated for 10 mins; assay type: cell-based
# GABA transporter 4 = target: T2, GABA transporter 4 (Mus musculus, UniProt P31650); test: Inhibition of mouse GAT4 expressed in HEK293 cells assessed as reduction in [3H]-GABA uptake incubated for 10 mins; assay type: cell-based
# T2 sequence (P31650 whole entry): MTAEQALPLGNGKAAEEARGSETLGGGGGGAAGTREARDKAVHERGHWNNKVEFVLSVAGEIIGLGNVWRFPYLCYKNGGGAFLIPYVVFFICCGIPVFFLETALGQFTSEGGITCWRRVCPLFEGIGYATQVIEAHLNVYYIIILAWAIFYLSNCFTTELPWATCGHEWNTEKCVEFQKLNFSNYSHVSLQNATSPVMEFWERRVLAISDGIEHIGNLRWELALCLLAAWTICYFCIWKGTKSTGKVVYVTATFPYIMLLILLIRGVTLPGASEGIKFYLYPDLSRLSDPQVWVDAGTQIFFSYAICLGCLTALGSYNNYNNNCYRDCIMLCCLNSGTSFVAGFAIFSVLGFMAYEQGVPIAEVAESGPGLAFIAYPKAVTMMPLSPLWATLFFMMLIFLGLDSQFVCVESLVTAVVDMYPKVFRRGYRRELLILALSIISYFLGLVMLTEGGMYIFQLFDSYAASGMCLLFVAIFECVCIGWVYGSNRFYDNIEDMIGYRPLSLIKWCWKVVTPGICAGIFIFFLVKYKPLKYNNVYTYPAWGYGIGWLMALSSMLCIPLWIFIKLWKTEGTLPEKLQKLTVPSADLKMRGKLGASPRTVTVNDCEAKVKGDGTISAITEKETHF
# cells [4] = settings: Mus musculus, HEK293
# Description: Inhibition of mouse GAT2 expressed in HEK293 cells assessed as reduction in [3H]-GABA uptake incubated for 10 mins
# cells [5] = settings: Mus musculus, HEK293; remark: listed apart in the source
# Description: Inhibition of mouse GAT3 expressed in HEK293 cells assessed as reduction in [3H]-GABA uptake incubated for 10 mins
# Cholinesterase [6] = target: T1, Cholinesterase
# Description: Inhibition of human recombinant BuChE using butyrylthiocholine iodide as substrate preincubated for 5 mins followed by substrate addition and measured after 5 mins by DTNB-reagent based Ellman's method
# [7] = target: ATP-dependent translocase ABCB1 (Homo sapiens, UniProt P08183); test: Substrate activity at P-gp membranes (unknown origin) at 100 uM incubated for 40 mins by luminescent glo assay relative to control; assay type: ADME, cell membranes, Membrane
# hERG (KCNH2) = hERG (KCNH2) (Homo sapiens, UniProt Q12809); test: Inhibition of human ERG at 10 uM relative to control; assay type: toxicity
# hERG (KCNH2), sequence (Q12809 whole entry): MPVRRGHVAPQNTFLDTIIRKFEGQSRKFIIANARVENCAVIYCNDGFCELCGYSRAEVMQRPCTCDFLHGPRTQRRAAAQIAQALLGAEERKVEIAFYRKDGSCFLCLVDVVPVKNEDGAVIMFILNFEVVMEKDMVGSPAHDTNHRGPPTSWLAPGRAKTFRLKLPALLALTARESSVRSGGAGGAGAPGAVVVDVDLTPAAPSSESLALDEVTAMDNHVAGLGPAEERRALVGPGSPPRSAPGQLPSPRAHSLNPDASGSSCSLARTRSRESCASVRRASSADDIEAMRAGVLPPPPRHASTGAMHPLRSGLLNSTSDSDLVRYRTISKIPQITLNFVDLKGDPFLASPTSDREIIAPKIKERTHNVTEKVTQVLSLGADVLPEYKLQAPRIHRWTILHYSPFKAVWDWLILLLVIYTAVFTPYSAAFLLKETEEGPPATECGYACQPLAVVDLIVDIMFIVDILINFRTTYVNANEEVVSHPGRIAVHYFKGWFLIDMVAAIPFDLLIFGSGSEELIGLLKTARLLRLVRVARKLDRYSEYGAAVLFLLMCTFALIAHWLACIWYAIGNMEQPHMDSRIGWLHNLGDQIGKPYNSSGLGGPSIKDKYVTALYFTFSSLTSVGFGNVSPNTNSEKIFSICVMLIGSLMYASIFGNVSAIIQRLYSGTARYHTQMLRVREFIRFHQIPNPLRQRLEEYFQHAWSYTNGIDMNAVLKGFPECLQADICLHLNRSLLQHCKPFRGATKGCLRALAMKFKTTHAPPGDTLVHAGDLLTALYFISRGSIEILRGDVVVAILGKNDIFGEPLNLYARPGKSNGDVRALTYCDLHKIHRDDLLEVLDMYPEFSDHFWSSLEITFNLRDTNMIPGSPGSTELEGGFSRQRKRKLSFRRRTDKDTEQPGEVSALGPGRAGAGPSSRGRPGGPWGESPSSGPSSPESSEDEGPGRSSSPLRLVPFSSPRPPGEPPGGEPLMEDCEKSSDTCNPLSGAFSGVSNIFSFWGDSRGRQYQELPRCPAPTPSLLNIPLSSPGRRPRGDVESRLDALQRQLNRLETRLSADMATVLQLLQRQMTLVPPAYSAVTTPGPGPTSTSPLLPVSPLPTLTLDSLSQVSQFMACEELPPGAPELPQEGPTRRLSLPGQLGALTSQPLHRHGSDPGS
# [8] = target: Cholinesterase (Equus caballus) (UniProt P81908); test: Inhibition of horse serum BuChE using butyrylthiocholine iodide as substrate at 10 uM preincubated for 5 mins followed by substrate addition and measured after 5 mins by DTNB-reagent based Ellman's method relative to control; assay type: cell-free; settings: time 10.0 min
# Cholinesterase (Equus caballus), sequence (P81908 whole entry): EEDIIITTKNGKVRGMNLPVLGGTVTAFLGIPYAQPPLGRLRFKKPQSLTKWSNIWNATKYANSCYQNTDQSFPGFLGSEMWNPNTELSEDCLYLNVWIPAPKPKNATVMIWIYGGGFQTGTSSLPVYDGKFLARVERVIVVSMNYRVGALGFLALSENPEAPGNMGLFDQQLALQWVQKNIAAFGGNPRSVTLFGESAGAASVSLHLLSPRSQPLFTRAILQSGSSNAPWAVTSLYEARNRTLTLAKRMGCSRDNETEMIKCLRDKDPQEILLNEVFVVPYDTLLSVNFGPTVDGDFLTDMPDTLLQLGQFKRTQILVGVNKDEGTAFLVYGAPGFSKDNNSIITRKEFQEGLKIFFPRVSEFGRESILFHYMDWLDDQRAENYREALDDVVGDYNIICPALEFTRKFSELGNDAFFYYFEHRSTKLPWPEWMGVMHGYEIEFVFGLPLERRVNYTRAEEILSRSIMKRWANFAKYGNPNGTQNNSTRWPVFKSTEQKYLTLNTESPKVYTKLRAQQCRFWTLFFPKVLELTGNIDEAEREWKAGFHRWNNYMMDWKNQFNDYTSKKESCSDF
# [9] = Toxicity in Albino Swiss CD-1 mouse model of scopolamine induced memory deficit assessed as sedation at 30 mg/kg, ip pretreated for 30 mins followed by scopolamine administration and measured after 30 mins; assay type: organism-based; settings: in vivo, 1 h, time 60 min
# [10] = Toxicity in Albino Swiss CD-1 mouse model of scopolamine induced memory deficit assessed as motor deficit at 30 mg/kg, ip pretreated for 30 mins followed by scopolamine administration and measured after 30 mins; assay type: organism-based; settings: in vivo, 1 h, time 60 min
# [11] = Metabolic stability in human liver microsomes assessed as parent compound remaining incubated for 120 mins in presence of NADPH regeneration system by UPLC/MS analysis; assay type: ADME, Microsome; settings: read-out: Stability
# [12] = Drug metabolism in human liver microsomes assessed as N-dealkylation mediated metabolite formation; assay type: ADME, Microsome
# [13] = Drug metabolism in human liver microsomes assessed as oxidation mediated metabolite formation; assay type: ADME, Microsome
# [14] = Drug metabolism in human liver microsomes assessed as hydroxylation mediated metabolite formation; assay type: ADME, Microsome
# Cholinesterase (Equus caballus, UniProt P81908), sequence (P81908 whole entry): as above
compound,measurement,setting,value
C[C@H](NCC(O)CNC(=O)CC(c1ccccc1)c1ccccc1)c1ccccc1 (mixture of isomers),IC50,Cholinesterase [1],4770 nM
same,inhibition,Cholinesterase [2],34%
O=C(NC[C@H](O)CNCC1CCCCC1)C(c1ccccc1)c1ccccc1,CC50 at 72 h,in vitro,18700 nM
same,inhibition (INH),Cytochrome P450 2D6,Active
same,inhibition (INH),Cytochrome P450 3A4,Active
O=C(NCC(O)CNCc1ccccc1)C(c1ccccc1)c1ccccc1 (racemic),IC50,Cholinesterase [1],2540 nM
same,inhibition,Cholinesterase [2],< 20%
same,IC50,[3],> 10000 nM
same,IC50,GABA transporter 4,> 10000 nM
same,IC50,cells [4],> 10000 nM
same,IC50,cells [5],> 10000 nM
COc1cccc(CNCC(O)CNC(=O)CC(c2ccccc2)c2ccccc2)c1 (racemic),IC50,Cholinesterase [1],660 nM
same,IC50,Cholinesterase [6],250 nM
COc1cccc(CNCC(O)CNC(=O)C(c2ccccc2)c2ccccc2)c1 (racemic),IC50,Cholinesterase [1],2180 nM
same,inhibition,Cholinesterase [2],70%
CC(C)(C)c1cccc(CNCC(O)CNC(=O)CC(c2ccccc2)c2ccccc2)c1 (racemic),IC50,Cholinesterase [1],320 nM
same,IC50,Cholinesterase [6],180 nM
same,IC50,[3],> 10000 nM
same,IC50,GABA transporter 4,> 10000 nM
same,IC50,cells [4],> 10000 nM
same,IC50,cells [5],> 10000 nM
C[C@H](NCC(O)CNC(=O)C(c1ccccc1)c1ccccc1)c1ccccc1 (mixture of isomers),IC50,Cholinesterase [1],4540 nM
same,inhibition,Cholinesterase [2],< 20%
O=C(CC(c1ccccc1)c1ccccc1)NC[C@@H](O)CNCC1CCCCC1,CC50 at 72 h,in vitro,3210 nM
same,inhibition (INH),Cytochrome P450 2D6,Active
same,inhibition (INH),Cytochrome P450 3A4,Active
same,Activity,[7],<= 190%
same,inhibition at 10 µM,hERG (KCNH2),< 50%
O=C(NCC(O)CNCC1CC1)C(c1ccccc1)c1ccccc1 (racemic),inhibition,Cholinesterase [2],< 20%
same,inhibition,[8],47%
CC(C)(NCC(O)CNC(=O)C(c1ccccc1)c1ccccc1)c1ccccc1 (racemic),inhibition,Cholinesterase [2],< 20%
same,inhibition,[8],42%
O=C(CC(c1ccccc1)c1ccccc1)NC[C@H](O)CNCC1CCCCC1,CC50 at 72 h,in vitro,2850 nM
same,Activity,[9],Toxic
same,inhibition (INH),Cytochrome P450 2D6,Active
same,inhibition (INH),Cytochrome P450 3A4,Active
same,Activity,[7],<= 190%
same,inhibition at 10 µM,hERG (KCNH2),< 50%
same,Activity,[10],Toxic
O=C(CC(c1ccccc1)c1ccccc1)NCC(O)CNCc1cccc(C(F)(F)F)c1 (racemic),IC50,Cholinesterase [1],1730 nM
same,IC50,Cholinesterase [6],410 nM
CC(C)(C)c1cccc(CNCC(O)CNC(=O)C(c2ccccc2)c2ccccc2)c1 (racemic),IC50,Cholinesterase [1],260 nM
same,IC50,Cholinesterase [6],100 nM
same,IC50,[3],> 10000 nM
same,IC50,GABA transporter 4,> 10000 nM
same,IC50,cells [4],> 10000 nM
same,IC50,cells [5],> 10000 nM
O=C(NCC(O)CNCC1CCCCC1)C(c1ccccc1)c1ccccc1 (stereo not drawn),remaining at 2 h,[11],> 80%
same,Drug metabolism,[12],Metabolite_Detected
same,inhibition (INH),Cytochrome P450 2D6,Active
same,inhibition (INH),Cytochrome P450 3A4,Active
O=C(NCC(O)CNCc1cccc(C(F)(F)F)c1)C(c1ccccc1)c1ccccc1 (racemic),IC50,Cholinesterase [1],960 nM
same,IC50,Cholinesterase [6],700 nM
CC(C)(C)c1ccc(CNCC(O)CNC(=O)C(c2ccccc2)c2ccccc2)cc1 (racemic),IC50,Cholinesterase [1],1120 nM
same,IC50,Cholinesterase [6],300 nM
O=C(CC(c1ccccc1)c1ccccc1)NCC(O)CNCc1ccccc1 (racemic),IC50,Cholinesterase [1],610 nM
same,remaining at 2 h,[11],66%
same,Drug metabolism,[12],Metabolite_Detected
same,inhibition (INH),Cytochrome P450 2D6,Active
same,IC50,Cholinesterase [6],280 nM
same,inhibition (INH),Cytochrome P450 3A4,Active
same,Drug metabolism,[13],Metabolite_Detected
same,Drug metabolism,[14],Metabolite_Detected
CC(C)c1cccc(CNCC(O)CNC(=O)CC(c2ccccc2)c2ccccc2)c1 (racemic),IC50,Cholinesterase [1],630 nM
same,IC50,Cholinesterase [6],260 nM
CC(C)(NCC(O)CNC(=O)CC(c1ccccc1)c1ccccc1)c1ccccc1 (racemic),inhibition,Cholinesterase [2],< 20%
same,inhibition,[8],44%
O=C(NC[C@@H](O)CNCC1CCCCC1)C(c1ccccc1)c1ccccc1,CC50 at 72 h,in vitro,25800 nM
same,inhibition (INH),Cytochrome P450 2D6,Active
same,inhibition (INH),Cytochrome P450 3A4,Active
O=C(CC(c1ccccc1)c1ccccc1)NCC(O)CNCC1CC1 (racemic),IC50,Cholinesterase [1],3580 nM
same,inhibition,Cholinesterase [2],46%
same,IC50,[3],> 10000 nM
same,IC50,GABA transporter 4,> 10000 nM
same,IC50,cells [4],> 10000 nM
same,IC50,cells [5],> 10000 nM
CC(C)(C)c1ccc(CNCC(O)CNC(=O)CC(c2ccccc2)c2ccccc2)cc1 (racemic),IC50,Cholinesterase [1],1940 nM
same,IC50,Cholinesterase [6],160 nM
